According to ChEMBL document CHEMBL4052645, “Discovery of potent and efficacious pyrrolopyridazines as dual JAK1/3 inhibitors” (Bioorg Med Chem Lett, 2017):

What was measured:
[1] = target: Macrophage colony-stimulating factor 1 receptor (Homo sapiens) (UniProt P07333); assay: Inhibition of wild-type human partial length FMS (I564 to S939 residues) expressed in bacterial expression system assessed as residual activity at 50 nM by Kinomescan method relative to control
[2] = target: Mitogen-activated protein kinase kinase kinase 20 (Homo sapiens) (UniProt Q9NYL2); assay: Inhibition of wild-type human partial length ZAK (M1 to L331 residues) expressed in bacterial expression system assessed as residual activity at 50 nM by Kinomescan method relative to control
[3] = tested on: Phosphatidylinositol 4,5-bisphosphate 3-kinase catalytic subunit alpha isoform (Homo sapiens), P42336 [E542K]; assay: Inhibition of human partial length PI3KCA E542K mutant (R108 to N1068 residues) expressed in mammalian expression system assessed as residual activity at 50 nM by Kinomescan method relative to control
Sequence of Phosphatidylinositol 4,5-bisphosphate 3-kinase catalytic subunit alpha isoform (Homo sapiens), P42336 [E542K] (P42336 whole entry E542K, the tested form may be a part, canonical isoform): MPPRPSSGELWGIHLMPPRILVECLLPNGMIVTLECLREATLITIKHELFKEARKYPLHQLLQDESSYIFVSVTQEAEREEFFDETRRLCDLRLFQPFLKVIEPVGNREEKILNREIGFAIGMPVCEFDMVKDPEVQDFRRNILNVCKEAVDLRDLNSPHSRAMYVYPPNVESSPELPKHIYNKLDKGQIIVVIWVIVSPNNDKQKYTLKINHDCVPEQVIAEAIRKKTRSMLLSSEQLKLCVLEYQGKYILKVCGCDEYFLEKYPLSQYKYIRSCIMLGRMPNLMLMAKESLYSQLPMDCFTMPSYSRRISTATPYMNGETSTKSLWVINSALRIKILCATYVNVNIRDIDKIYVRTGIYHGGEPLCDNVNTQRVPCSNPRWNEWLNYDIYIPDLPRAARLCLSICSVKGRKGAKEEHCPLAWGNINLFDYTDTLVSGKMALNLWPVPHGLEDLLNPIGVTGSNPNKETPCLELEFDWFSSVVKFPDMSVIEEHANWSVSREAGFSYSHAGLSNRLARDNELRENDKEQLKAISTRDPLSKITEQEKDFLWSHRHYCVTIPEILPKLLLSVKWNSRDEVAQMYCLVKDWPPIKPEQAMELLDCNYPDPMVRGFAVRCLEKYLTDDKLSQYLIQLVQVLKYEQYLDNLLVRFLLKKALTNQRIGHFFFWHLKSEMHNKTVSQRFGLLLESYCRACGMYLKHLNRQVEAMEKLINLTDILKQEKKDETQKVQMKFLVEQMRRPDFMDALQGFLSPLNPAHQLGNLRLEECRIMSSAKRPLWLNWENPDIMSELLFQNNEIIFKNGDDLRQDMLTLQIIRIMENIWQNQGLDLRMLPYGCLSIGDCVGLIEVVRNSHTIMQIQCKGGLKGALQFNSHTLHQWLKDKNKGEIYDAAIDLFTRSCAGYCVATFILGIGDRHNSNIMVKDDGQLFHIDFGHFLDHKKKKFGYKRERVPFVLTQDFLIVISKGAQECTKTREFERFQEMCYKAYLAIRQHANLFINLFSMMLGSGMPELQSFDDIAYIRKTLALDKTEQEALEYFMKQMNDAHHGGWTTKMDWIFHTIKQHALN

[4] = target: Calcium/calmodulin-dependent protein kinase type IV (Homo sapiens) (UniProt Q16566); assay: Inhibition of wild-type human partial length CAMK4 (A22 to A322 residues) expressed in bacterial expression system assessed as residual activity at 50 nM by Kinomescan method relative to control
[5] = target: cAMP-dependent protein kinase catalytic subunit beta (Homo sapiens) (UniProt P22694); assay: Inhibition of wild-type human full length PKACB (M1 to F351 residues) expressed in bacterial expression system assessed as residual activity at 50 nM by Kinomescan method relative to control
[6] = target: Mitogen-activated protein kinase 3 (Homo sapiens) (UniProt P27361); assay: Inhibition of wild-type human full length ERK1 (M1 to P379 residues) expressed in bacterial expression system assessed as residual activity at 50 nM by Kinomescan method relative to control
[7] = target: Mitogen-activated protein kinase 15 (Homo sapiens) (UniProt Q8TD08); assay: Inhibition of wild-type human partial length ERK7 (M1 to P437 residues) expressed in bacterial expression system assessed as residual activity at 50 nM by Kinomescan method relative to control
[8] = target: Rho-associated protein kinase 2 (Homo sapiens, UniProt O75116); assay: Inhibition of human ROCK2 (M1 to T431 residues) expressed in mammalian expression system assessed as residual activity at 50 nM by KINOMEscan assay relative to control
[9] = target: Calcium/calmodulin-dependent protein kinase type II subunit delta (Homo sapiens) (UniProt Q13557); assay: Inhibition of wild-type human partial length CAMK2D (M1 to E329 residues) expressed in bacterial expression system assessed as residual activity at 50 nM by Kinomescan method relative to control
[10] = target: Dual specificity mitogen-activated protein kinase kinase 3 (Homo sapiens) (UniProt P46734); assay: Inhibition of wild-type human full length MAP2K3 (M1 to S318 residues) expressed in mammalian expression system assessed as residual activity at 50 nM by Kinomescan method relative to control
[11] = target: Serine/threonine-protein kinase RIO1 (Homo sapiens) (UniProt Q9BRS2); assay: Inhibition of full length human RIOK1 (M1 to K568 residues) expressed in bacterial expression system assessed as residual activity at 50 nM by KINOMEscan assay relative to control
[12] = target: Serine/threonine-protein kinase pim-3 (Homo sapiens) (UniProt Q86V86); assay: Inhibition of wild-type human partial length PIM3 (G16 to A317 residues) expressed in bacterial expression system assessed as residual activity at 50 nM by Kinomescan method relative to control
[13] = target: Death-associated protein kinase 3 (Homo sapiens) (UniProt O43293); assay: Inhibition of wild-type human partial length DAPK3 (M1 to A277 residues) expressed in bacterial expression system assessed as residual activity at 50 nM by Kinomescan method relative to control
Homo sapiens = organism: Homo sapiens; assay: Inhibition of human partial length FLT3 ITD mutant expressed in bacterial expression system assessed as residual activity at 50 nM by Kinomescan method relative to control
[14] = target: Mitogen-activated protein kinase 13 (Homo sapiens) (UniProt O15264); assay: Inhibition of wild-type human full length p38-delta (M1 to L365 residues) expressed in bacterial expression system assessed as residual activity at 50 nM by Kinomescan method relative to control
Sequence of Mitogen-activated protein kinase 13 (Homo sapiens) (O15264 whole entry, the tested form may be a part): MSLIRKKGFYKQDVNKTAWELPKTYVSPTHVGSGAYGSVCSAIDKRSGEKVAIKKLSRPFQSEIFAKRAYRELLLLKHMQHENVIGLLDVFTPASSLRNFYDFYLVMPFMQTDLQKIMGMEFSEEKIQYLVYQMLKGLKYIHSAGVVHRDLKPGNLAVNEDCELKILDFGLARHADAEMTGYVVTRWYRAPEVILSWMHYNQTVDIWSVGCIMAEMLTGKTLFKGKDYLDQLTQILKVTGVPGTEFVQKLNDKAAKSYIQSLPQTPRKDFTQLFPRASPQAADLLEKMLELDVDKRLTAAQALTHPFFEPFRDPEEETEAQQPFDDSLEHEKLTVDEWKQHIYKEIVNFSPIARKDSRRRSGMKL

[15] = target: Inhibitor of nuclear factor kappa-B kinase subunit beta (Homo sapiens) (UniProt O14920); assay: Inhibition of wild-type human full length IKK-beta (M1 to S756 residues) expressed in mammalian expression system assessed as residual activity at 50 nM by Kinomescan method relative to control
Sequence of Inhibitor of nuclear factor kappa-B kinase subunit beta (Homo sapiens) (O14920 whole entry, the tested form may be a part): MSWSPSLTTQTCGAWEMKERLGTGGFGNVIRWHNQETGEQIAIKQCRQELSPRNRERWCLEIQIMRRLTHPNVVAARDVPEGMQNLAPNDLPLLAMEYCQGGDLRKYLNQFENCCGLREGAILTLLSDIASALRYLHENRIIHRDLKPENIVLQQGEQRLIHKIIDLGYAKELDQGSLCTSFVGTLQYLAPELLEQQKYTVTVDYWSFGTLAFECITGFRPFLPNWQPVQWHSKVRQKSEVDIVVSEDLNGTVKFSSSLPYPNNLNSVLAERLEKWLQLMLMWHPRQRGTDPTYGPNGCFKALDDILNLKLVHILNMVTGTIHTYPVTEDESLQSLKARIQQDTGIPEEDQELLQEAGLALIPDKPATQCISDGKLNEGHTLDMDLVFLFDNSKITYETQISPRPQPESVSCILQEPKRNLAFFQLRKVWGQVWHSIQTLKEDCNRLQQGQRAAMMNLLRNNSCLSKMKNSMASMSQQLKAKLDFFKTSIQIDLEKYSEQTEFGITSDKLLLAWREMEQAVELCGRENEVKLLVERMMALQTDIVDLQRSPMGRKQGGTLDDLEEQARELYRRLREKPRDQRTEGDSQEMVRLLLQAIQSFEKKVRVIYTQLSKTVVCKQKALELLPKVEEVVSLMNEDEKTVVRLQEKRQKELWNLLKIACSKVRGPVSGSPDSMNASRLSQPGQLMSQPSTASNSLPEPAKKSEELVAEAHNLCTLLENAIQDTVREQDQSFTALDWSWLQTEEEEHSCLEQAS

[16] = target: Receptor-interacting serine/threonine-protein kinase 2 (Homo sapiens) (UniProt O43353); assay: Inhibition of wild-type human partial length RIPK2 (M1 to K310 residues) expressed in bacterial expression system assessed as residual activity at 50 nM by Kinomescan method relative to control
Sequence of Receptor-interacting serine/threonine-protein kinase 2 (Homo sapiens) (O43353 whole entry, the tested form may be a part): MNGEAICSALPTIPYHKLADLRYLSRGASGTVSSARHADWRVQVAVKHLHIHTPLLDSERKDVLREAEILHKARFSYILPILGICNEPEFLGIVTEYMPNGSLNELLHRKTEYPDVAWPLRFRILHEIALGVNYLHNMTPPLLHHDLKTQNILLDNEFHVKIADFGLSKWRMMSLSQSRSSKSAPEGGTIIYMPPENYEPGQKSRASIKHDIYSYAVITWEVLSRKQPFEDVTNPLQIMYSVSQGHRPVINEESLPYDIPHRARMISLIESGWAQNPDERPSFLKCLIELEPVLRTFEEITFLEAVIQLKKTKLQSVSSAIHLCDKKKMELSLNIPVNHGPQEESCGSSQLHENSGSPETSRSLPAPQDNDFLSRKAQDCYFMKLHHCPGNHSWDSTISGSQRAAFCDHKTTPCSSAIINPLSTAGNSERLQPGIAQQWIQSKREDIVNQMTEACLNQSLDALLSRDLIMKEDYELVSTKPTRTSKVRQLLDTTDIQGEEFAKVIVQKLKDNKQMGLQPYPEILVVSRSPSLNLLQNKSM

[17] = target: MAP kinase-activated protein kinase 5 (Homo sapiens) (UniProt Q8IW41); assay: Inhibition of wild-type human partial length MAPKAPK5 (M1 to D322 residues) expressed in mammalian expression system assessed as residual activity at 50 nM by Kinomescan method relative to control
Sequence of MAP kinase-activated protein kinase 5 (Homo sapiens) (Q8IW41 whole entry, the tested form may be a part): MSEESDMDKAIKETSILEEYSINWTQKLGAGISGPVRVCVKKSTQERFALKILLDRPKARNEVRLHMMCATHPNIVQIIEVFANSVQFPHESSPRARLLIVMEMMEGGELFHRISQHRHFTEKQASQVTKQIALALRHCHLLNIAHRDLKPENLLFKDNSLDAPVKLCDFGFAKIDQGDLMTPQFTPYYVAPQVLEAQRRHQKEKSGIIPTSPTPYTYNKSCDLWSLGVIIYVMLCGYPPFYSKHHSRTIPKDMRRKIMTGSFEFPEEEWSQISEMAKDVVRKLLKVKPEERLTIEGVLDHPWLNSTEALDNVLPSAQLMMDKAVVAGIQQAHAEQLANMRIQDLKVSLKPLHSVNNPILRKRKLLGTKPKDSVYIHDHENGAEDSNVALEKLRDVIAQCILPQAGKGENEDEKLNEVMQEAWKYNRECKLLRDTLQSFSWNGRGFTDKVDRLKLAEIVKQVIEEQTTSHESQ

[18] = target: Serine/threonine-protein kinase SIK1 (Homo sapiens) (UniProt P57059); assay: Inhibition of wild-type human partial length SIK (M1 to Y304 residues) expressed in bacterial expression system assessed as residual activity at 50 nM by Kinomescan method relative to control
[19] = target: Cytoplasmic tyrosine-protein kinase BMX (Homo sapiens) (UniProt P51813); assay: Inhibition of wild-type human full length BMX (M1 to H675 residues) expressed in bacterial expression system assessed as residual activity at 50 nM by Kinomescan method relative to control
[20] = target: Hepatocyte growth factor receptor (Homo sapiens) (UniProt P08581); assay: Inhibition of wild-type human partial length MET (D1010 to S1367 residues) expressed in bacterial expression system assessed as residual activity at 50 nM by Kinomescan method relative to control
Sequence of Hepatocyte growth factor receptor (Homo sapiens) (P08581 whole entry, the tested form may be a part): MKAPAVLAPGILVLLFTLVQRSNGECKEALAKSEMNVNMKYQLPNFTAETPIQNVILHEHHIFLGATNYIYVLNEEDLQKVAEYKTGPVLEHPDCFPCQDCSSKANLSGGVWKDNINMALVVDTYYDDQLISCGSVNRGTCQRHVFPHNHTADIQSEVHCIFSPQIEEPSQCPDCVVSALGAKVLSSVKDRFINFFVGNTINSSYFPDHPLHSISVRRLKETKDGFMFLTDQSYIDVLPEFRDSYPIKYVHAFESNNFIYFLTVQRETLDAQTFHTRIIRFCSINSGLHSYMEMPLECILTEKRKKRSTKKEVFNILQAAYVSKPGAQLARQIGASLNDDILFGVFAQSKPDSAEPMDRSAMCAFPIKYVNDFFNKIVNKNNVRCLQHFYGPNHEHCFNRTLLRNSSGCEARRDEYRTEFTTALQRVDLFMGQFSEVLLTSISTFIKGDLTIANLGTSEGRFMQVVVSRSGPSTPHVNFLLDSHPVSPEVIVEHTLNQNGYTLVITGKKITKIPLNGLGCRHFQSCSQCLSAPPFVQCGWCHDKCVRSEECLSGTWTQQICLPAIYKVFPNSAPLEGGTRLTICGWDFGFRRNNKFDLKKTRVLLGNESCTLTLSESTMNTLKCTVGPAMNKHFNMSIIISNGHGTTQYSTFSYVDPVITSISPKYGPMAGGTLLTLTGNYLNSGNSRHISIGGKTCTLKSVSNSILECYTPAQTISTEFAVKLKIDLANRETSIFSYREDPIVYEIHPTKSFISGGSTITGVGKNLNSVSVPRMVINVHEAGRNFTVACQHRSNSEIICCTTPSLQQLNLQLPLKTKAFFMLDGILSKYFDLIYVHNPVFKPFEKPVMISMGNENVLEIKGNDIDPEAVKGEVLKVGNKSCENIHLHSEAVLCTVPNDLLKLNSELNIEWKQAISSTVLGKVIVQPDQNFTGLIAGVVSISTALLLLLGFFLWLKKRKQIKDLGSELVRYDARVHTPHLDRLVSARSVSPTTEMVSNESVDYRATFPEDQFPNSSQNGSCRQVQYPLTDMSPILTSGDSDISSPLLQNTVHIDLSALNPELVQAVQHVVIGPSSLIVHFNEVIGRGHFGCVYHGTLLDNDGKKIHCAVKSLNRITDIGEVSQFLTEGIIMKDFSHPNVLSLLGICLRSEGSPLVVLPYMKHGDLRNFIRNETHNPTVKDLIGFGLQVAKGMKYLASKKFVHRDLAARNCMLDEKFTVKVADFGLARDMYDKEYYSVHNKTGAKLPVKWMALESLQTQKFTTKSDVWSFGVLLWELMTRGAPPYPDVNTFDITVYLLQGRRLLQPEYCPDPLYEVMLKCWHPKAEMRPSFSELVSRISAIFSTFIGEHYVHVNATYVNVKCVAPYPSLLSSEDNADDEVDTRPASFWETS

[21] = target: Maternal embryonic leucine zipper kinase (Homo sapiens) (UniProt Q14680); assay: Inhibition of wild-type human full length MELK (M1 to V651 residues) expressed in bacterial expression system assessed as residual activity at 50 nM by Kinomescan method relative to control
[22] = target: Cyclin-dependent kinase 8 (Homo sapiens) (UniProt P49336); assay: Inhibition of wild-type human partial length CDK8 (M1 to T360 residues) expressed in bacterial expression system assessed as residual activity at 50 nM by Kinomescan method relative to control
[23] = target: Calcium/calmodulin-dependent protein kinase type II subunit gamma (Homo sapiens) (UniProt Q13555); assay: Inhibition of wild-type human partial length CAMK2G (R9 to A303 residues) expressed in bacterial expression system assessed as residual activity at 50 nM by Kinomescan method relative to control
[24] = target: Serine/threonine-protein kinase MRCK gamma (Homo sapiens) (UniProt Q6DT37); assay: Inhibition of wild-type human partial length DMPK2 (S46 to S408 residues) expressed in bacterial expression system assessed as residual activity at 50 nM by Kinomescan method relative to control

SMILES	Activity [1] [%]	Activity [2] [%]	Activity [3] [%]	Activity [4] [%]	Activity [5] [%]	Activity [6] [%]	Activity [7] [%]	Activity [8] [%]	Activity [9] [%]	Activity [10] [%]	Activity [11] [%]	Activity [12] [%]	Activity [13] [%]	Activity (Homo sapiens) [%]	Activity [14] [%]	Activity [15] [%]	Activity [16] [%]	Activity [17] [%]	Activity [18] [%]	Activity [19] [%]	other results
COc1ccc(-c2cc3c(N[C@@H]4CC[C@](C)(N)C4(C)C)c(C(N)=O)cnn3c2)cn1	74	91	100	100	100	100	100	18	100	92	69	72	97	79	100	100	100	100	96	64	Activity [20]: 87%; Activity [21]: 79%; Activity [22]: 86%; Activity [23]: 90%; Activity [24]: 97%
CC1(C)[C@H](Nc2c(C(N)=O)cnn3cc(-c4ccccc4)cc23)CC[C@]1(C)N	57	96	100	100	100	93	100	3.6	100	96	14	92	90	80	100	73	93	100	80	100	Activity [20]: 88%; Activity [21]: 79%; Activity [22]: 100%; Activity [23]: 91%; Activity [24]: 37%
